Test results published in PubChem BioAssay AID1963958 (Molecular Pharmacology Branch, DTP, NCI, 2024).
Where “and” joins values, the source holds several entries; their conditions need not be identical. Equal entries are not always repeated. Blank lines part the entries; values can stand above or below the molecule they belong to.

Test system: MDA-MB-231 multicell spheroids, viability
Experiment: Anticancer human tumor MDA-MB-231 cell line growth inhibition [PI3K];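 note: spheroids exposed to agents for seven days before reading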;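 for viability, T/C: percent of vehicle control luminescence with DMSO treated spheroids as 100%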
Conditions: for viability, T/C: stronger effect = lower value
Procedure, shortened: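 Viability of mixed-cell spheroids was determined after exposure to pairwise combinations, one partner being inavolisib, alpelisib, duvelisib or copanlisib. Highest tested concentration matched clinical Cmax where known and 10 microM where not, descending in half-log steps.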

[1] = curve of first compound, second compound 0.0316 µM
[2] = curve of first compound, second compound 0.1 µM
[3] = curve of first compound, second compound 0.316 µM
[4] = curve of first compound, second compound 1 µM
[5] = second compound 0.0316 µM, first compound 0.0316 µM
[6] = second compound 0.0316 µM, first compound 0.1 µM
[7] = second compound 0.0316 µM, first compound 0.316 µM
[8] = second compound 0.0316 µM, first compound 1 µM
[9] = second compound 0.0316 µM, first compound 3.16 µM
[10] = second compound 0.0316 µM, first compound 10 µM
[11] = second compound 0.1 µM, first compound 0.0316 µM
[12] = second compound 0.1 µM, first compound 0.1 µM
[13] = second compound 0.1 µM, first compound 0.316 µM
[14] = second compound 0.1 µM, first compound 1 µM
[15] = second compound 0.1 µM, first compound 3.16 µM
[16] = second compound 0.1 µM, first compound 10 µM
[17] = second compound 0.316 µM, first compound 0.0316 µM
[18] = second compound 0.316 µM, first compound 0.1 µM
[19] = second compound 0.316 µM, first compound 0.316 µM
[20] = second compound 0.316 µM, first compound 1 µM
[21] = second compound 0.316 µM, first compound 3.16 µM
[22] = second compound 0.316 µM, first compound 10 µM
[23] = second compound 1 µM, first compound 0.0316 µM
[24] = second compound 1 µM, first compound 0.1 µM
[25] = second compound 1 µM, first compound 0.316 µM
[26] = second compound 1 µM, first compound 1 µM
[27] = second compound 1 µM, first compound 3.16 µM
[28] = second compound 1 µM, first compound 10 µM

IC50 [1]: 0.706 µM | IC50 [2]: 0.512 µM | IC50 [3]: 0.3 µM | IC50 [4]: 0.117 µM | IC50 (curve of first compound, second compound 3.16 µM): < 0.0316 µM | IC50 (curve of first compound, second compound 10 µM): < 0.0316 µM
SMILES: Cn1nccc1Nc1nccc(-c2ccn(C(CO)c3ccc(Cl)c(F)c3)c(=O)c2)n1 (stereo unspecified) + CC(Nc1ncnc2nc[nH]c12)c1cc2cccc(Cl)c2c(=O)n1-c1ccccc1
viability, T/C [5]: 80.1% | viability, T/C [6]: 68.8% | viability, T/C [7]: 56.8% | viability, T/C [8]: 46.4% | viability, T/C [9]: 38.6% | viability, T/C [10]: 27.9% | viability, T/C [11]: 75.3% | viability, T/C [12]: 70.2% | viability, T/C [13]: 50.6% | viability, T/C [14]: 44.3% | viability, T/C [15]: 36.4% | viability, T/C [16]: 27.1% | viability, T/C [17]: 79.3% | viability, T/C [18]: 62.3% | viability, T/C [19]: 48% | viability, T/C [20]: 40.1% | viability, T/C [21]: 35.5% | viability, T/C [22]: 26.8% | viability, T/C [23]: 64.8% | viability, T/C [24]: 50.1% | viability, T/C [25]: 39.4% | viability, T/C [26]: 36.4% | viability, T/C [27]: 33% | viability, T/C [28]: 22.1% | viability, T/C (second compound 3.16 µM, first compound 0.0316 µM): 45.9% | viability, T/C (second compound 3.16 µM, first compound 0.1 µM): 38.8% | viability, T/C (second compound 3.16 µM, first compound 0.316 µM): 28.5% | viability, T/C (second compound 3.16 µM, first compound 1 µM): 24.8% | viability, T/C (second compound 3.16 µM, first compound 3.16 µM): 25.2% | viability, T/C (second compound 3.16 µM, first compound 10 µM): 21.2% | viability, T/C (second compound 10 µM, first compound 0.0316 µM): 36.5% | viability, T/C (second compound 10 µM, first compound 0.1 µM): 27.3% | viability, T/C (second compound 10 µM, first compound 0.316 µM): 25.7% | viability, T/C (second compound 10 µM, first compound 1 µM): 20.8% | viability, T/C (second compound 10 µM, first compound 3.16 µM): 22.9% | viability, T/C (second compound 10 µM, first compound 10 µM): 16.8%

IC50 (curve of compound): 905 nM [middle of 4 runs]
SMILES: Cn1nccc1Nc1nccc(-c2ccn(C(CO)c3ccc(Cl)c(F)c3)c(=O)c2)n1 (stereo unspecified)
viability, T/C (compound 0.0316 µM): 87% [middle of 4 runs] | viability, T/C (compound 0.1 µM): 70.7% [middle of 4 runs] | viability, T/C (compound 0.316 µM): 61.5% [middle of 4 runs] | viability, T/C (compound 1 µM): 50.8% and 49.5% and 49.4% (2×) | viability, T/C (compound 3.16 µM): 41.8% [middle of 4 runs] | viability, T/C (compound 10 µM): 30.1% [middle of 4 runs]

IC50 (curve of first compound, second compound 0.00316 µM): 2.62 µM | IC50 (curve of first compound, second compound 0.01 µM): 2.08 µM | IC50 [1]: 1.04 µM | IC50 [2]: < 0.0316 µM | IC50 [3]: < 0.0316 µM | IC50 [4]: < 0.0316 µM
SMILES: Cn1ncc(Cl)c1-c1cc(C(=O)NC(CN)Cc2cccc(F)c2)sc1Cl (stereo unspecified) + COc1c(OCCCN2CCOCC2)ccc2c3n(c(=NC(=O)c4cnc(N)nc4)nc12)CCN3
viability, T/C (second compound 0.00316 µM, first compound 0.0316 µM): 99.2% | viability, T/C (second compound 0.00316 µM, first compound 0.1 µM): 93.8% | viability, T/C (second compound 0.00316 µM, first compound 0.316 µM): 84.5% | viability, T/C (second compound 0.00316 µM, first compound 1 µM): 72% | viability, T/C (second compound 0.00316 µM, first compound 3.16 µM): 44.6% | viability, T/C (second compound 0.00316 µM, first compound 10 µM): 25.7% | viability, T/C (second compound 0.01 µM, first compound 0.0316 µM): 78.6% | viability, T/C (second compound 0.01 µM, first compound 0.1 µM): 83.1% | viability, T/C (second compound 0.01 µM, first compound 0.316 µM): 74.2% | viability, T/C (second compound 0.01 µM, first compound 1 µM): 63.7% | viability, T/C (second compound 0.01 µM, first compound 3.16 µM): 42.3% | viability, T/C (second compound 0.01 µM, first compound 10 µM): 25.4% | viability, T/C [5]: 60.2% | viability, T/C [6]: 61.5% | viability, T/C [7]: 60.8% | viability, T/C [8]: 48.9% | viability, T/C [9]: 34.8% | viability, T/C [10]: 19.6% | viability, T/C [11]: 48.2% | viability, T/C [12]: 47.5% | viability, T/C [13]: 46% | viability, T/C [14]: 40.7% | viability, T/C [15]: 29.9% | viability, T/C [16]: 17.4% | viability, T/C [17]: 32.5% | viability, T/C [18]: 33.6% | viability, T/C [19]: 29.9% | viability, T/C [20]: 29.2% | viability, T/C [21]: 20.9% | viability, T/C [22]: 13.9% | viability, T/C [23]: 25.8% | viability, T/C [24]: 24.8% | viability, T/C [25]: 24.4% | viability, T/C [26]: 23.4% | viability, T/C [27]: 22.2% | viability, T/C [28]: 20.8%
